We go through 22 compounds from patent US20260315464A1, “COMPOSITIONS, METHODS, AND SYSTEMS FOR MODULATING SPLICING OF MSH3” (REVIR THERAPEUTICS, INC., priority 2023, published 2026).

Molecules are shown by their SMILES.

Broadly, the EC50 is the concentration giving half of the maximal effect.

The subject of this test is MSH3. Kind of test: QPCR assay for levels of MSH3 upon compound treatment in HEK293T or AD293 cells (fold-change of MSH3 transcript, EC50 of MSH3 downregulation; total MSH3 exons 13/14, exons 20/21; Table 8). Type of test: cell-based. The conditions noted are these: for mrna remaining at 1 µM / mrna remaining at 10 µM: Homo sapiens, fold-change of the MSH3 transcript, normalized to GAPDH; for mrna remaining at 1 µM: 1 μM compound; for mrna remaining at 10 µM: 10 μM compound; for EC50: EC50 of MSH3 downregulation, XtalPi. In short, it runs like this:
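MSH3 mRNA was quantified by TaqMan qPCR covering exons 13/14, exons 20/21, exon 13/PE14A and exon 20/PE21A, with GAPDH as reference. Cells used were HEK293T or AD293, treated with compound at 1 μM and […].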

Consider `Cc1nn(C)nc1-c1cnc2c(c1)C(=O)N(c1ccc(N3CCC4(CCCN4)CC3)nn1)C2` [Compound 603, 6-(6-(1,8-diazaspiro[4.5]decan-8-yl)pyridazin-3-yl)-3-(2,5-dimethyl-2H-1,2,3-triazol-4-yl)-6,7-dihydro-5H-pyrrolo[3,4-b]pyridin-5-one], for which the mrna remaining at 1 µM stood at 155% and the mrna remaining at 10 µM was 94%.

In the case of `CC[C@]12CC[C@](CC)(C[C@@H](Oc3ccc(N4Cc5ncc(-c6cn(C)nc6C)cc5C4=O)nn3)C1)N2` [Compound 239, 6-(6-(((1R,3s,5S)-1,5-diethyl-8-azabicyclo[3.2.1]octan-3-yl)oxy)pyridazin-3-yl)-3-(1,3-dimethyl-1H-pyrazol-4-yl)-6,7-dihydro-5H-pyrrolo[3,4-b]pyridin-5-one], a half-maximal response (EC50) required 2040 nM, the mrna remaining at 1 µM turned out to be 84% and the mrna remaining at 10 µM was found to be 19%.

As to `Cn1cc(-c2cnc3c(c2)C(=O)N(c2ccc(O[C@H]4C[C@]5(C)CC[C@](C)(C4)N5)nn2)C3)c(Cl)n1` [Compound 261, 3-(3-chloro-1-methyl-1H-pyrazol-4-yl)-6-(6-(((1R,3s,5S)-1,5-dimethyl-8-azabicyclo[3.2.1]octan-3-yl)oxy)pyridazin-3-yl)-6,7-dihydro-5H-pyrrolo[3,4-b]pyridin-5-one], the mrna remaining at 1 µM amounted to 48% and the mrna remaining at 10 µM amounted to 7%.

As for `Cn1cc(-c2cc3c(cn2)CN(c2ccc(O[C@H]4C[C@]5(C)CC[C@](C)(C4)N5)nn2)C3=O)cn1` [Compound 99, 2-(6-(((1R,3s,5S)-1,5-dimethyl-8-azabicyclo[3.2.1]octan-3-yl)oxy)pyridazin-3-yl)-6-(1-methyl-1H-pyrazol-4-yl)-2,3-dihydro-1H-pyrrolo[3,4-c]pyridin-1-one], the mrna remaining at 1 µM was determined as 90% and the mrna remaining at 10 µM came out at 86%.

Consider `Cc1nn(C)cc1-c1cnc2c(c1)C(=O)N(c1ccc(O[C@@H]3C[C@@]4(C)CC[C@](C)(N4)[C@@H]3F)nn1)C2` [Compound 214, 3-(1,3-dimethyl-1H-pyrazol-4-yl)-6-(6-(((1S,2S,3R,5R)-2-fluoro-1,5-dimethyl-8-azabicyclo[3.2.1]octan-3-yl)oxy)pyridazin-3-yl)-6,7-dihydro-5H-pyrrolo[3,4-b]pyridin-5-one], for which the mrna remaining at 1 µM was determined as 95% and the mrna remaining at 10 µM came to 24%.

As for `Cc1nn(C)nc1-c1ncc2c(n1)C(=O)N(c1ccc(O[C@H]3C[C@]4(C)CC[C@](C)(C3)N4)nn1)C2` [Compound 592, 2-(2,5-dimethyl-2H-1,2,3-triazol-4-yl)-6-(6-(((1R,3s,5S)-1,5-dimethyl-8-azabicyclo[3.2.1]octan-3-yl)oxy)pyridazin-3-yl)-5,6-dihydro-7H-pyrrolo[3,4-d]pyrimidin-7-one], the mrna remaining at 1 µM amounted to 90% and the mrna remaining at 10 µM came to 54%.

Regarding `Cc1nn(C)nc1-c1cnc2c(n1)C(=O)N(c1ccc(OC3CC(C)(C)NC4(CCC4)C3)nn1)C2` (centres unmarked) [Compound 500, 3-(2,5-dimethyl-2H-1,2,3-triazol-4-yl)-6-(6-((6,6-dimethyl-5-azaspiro[3.5]nonan-8-yl)oxy)pyridazin-3-yl)-6,7-dihydro-5H-pyrrolo[3,4-b]pyrazin-5-one], the mrna remaining at 1 µM turned out to be 101% and the mrna remaining at 10 µM was found to be 22%.

On to `Cc1nc(C)c(-c2cnc3c(c2)C(=O)N(c2cnc(N(C)[C@H]4C[C@]5(C)CC[C@](C)(C4)N5)nn2)C3)s1` [Compound 200, 6-(3-(((1R,3s,5S)-1,5-dimethyl-8-azabicyclo[3.2.1]octan-3-yl)(methyl)amino)-1,2,4-triazin-6-yl)-3-(2,4-dimethylthiazol-5-yl)-6,7-dihydro-5H-pyrrolo[3,4-b]pyridin-5-one], for which the mrna remaining at 1 µM stood at 53% and the mrna remaining at 10 µM came out at 53%.

Regarding `Cc1nc(C)c(-c2cnc3c(c2)C(=O)N(c2cnc(N(C)C4CC(C)(C)NC(C)(C)C4)nn2)C3)s1` [Compound 195, 3-(2,4-dimethylthiazol-5-yl)-6-(3-(methyl(2,2,6,6-tetramethylpiperidin-4-yl)amino)-1,2,4-triazin-6-yl)-6,7-dihydro-5H-pyrrolo[3,4-b]pyridin-5-one], the mrna remaining at 1 µM was 59% and the mrna remaining at 10 µM was determined as 42%.

For the compound `Cc1nc(C)c(-c2cnc3c(c2)C(=O)N(c2ccc(OC4CC(C)(C)NC(C)(C)C4)nn2)C3)s1` [Compound 150, 3-(2,4-dimethylthiazol-5-yl)-6-(6-((2,2,6,6-tetramethylpiperidin-4-yl)oxy)pyridazin-3-yl)-6,7-dihydro-5H-pyrrolo[3,4-b]pyridin-5-one], the mrna remaining at 1 µM is 116% and the mrna remaining at 10 µM amounted to 77%.

As to `CC[C@]12CC[C@](C)(C[C@@H](Oc3ccc(N4Cc5ncc(-c6cn(C)nc6C)cc5C4=O)nn3)C1)N2` [Compound 240, 3-(1,3-dimethyl-1H-pyrazol-4-yl)-6-(6-(((1S,3R,5R)-1-ethyl-5-methyl-8-azabicyclo[3.2.1]octan-3-yl)oxy)pyridazin-3-yl)-6,7-dihydro-5H-pyrrolo[3,4-b]pyridin-5-one], the half-maximal effective concentration (EC50) stood at 2310 nM, the mrna remaining at 1 µM came to 87% and the mrna remaining at 10 µM turned out to be 16%.

For `Cn1ncc(-c2cnc3c(c2)C(=O)N(c2ccc(OC4CC(C)(C)NC(C)(C)C4)nn2)C3)n1` [Compound 191, 3-(2-methyl-2H-1,2,3-triazol-4-yl)-6-(6-((2,2,6,6-tetramethylpiperidin-4-yl)oxy)pyridazin-3-yl)-6,7-dihydro-5H-pyrrolo[3,4-b]pyridin-5-one], the mrna remaining at 1 µM was 45% and the mrna remaining at 10 µM was 17%.

`CN(c1ccc(N2Cc3c(F)cc(-c4cnn(CC(C)(C)O)c4)cc3C2=O)nn1)[C@H]1C[C@]2(C)CC[C@](C)(C1)N2` [Compound 632, 2-(6-(((1R,3s,5S)-1,5-dimethyl-8-azabicyclo[3.2.1]octan-3-yl)(methyl)amino)pyridazin-3-yl)-4-fluoro-6-(1-(2-hydroxy-2-methylpropyl)-1H-pyrazol-4-yl)isoindolin-1-one]: the mrna remaining at 1 µM was 72% and the mrna remaining at 10 µM was 57%.

As to `Cc1nn(C)nc1-c1cc(F)c2c(c1)C(=O)N(c1ccc(N3CCNC4(CC4)C3)nn1)C2` [Compound 650, 2-(6-(4,7-diazaspiro[2.5]octan-7-yl)pyridazin-3-yl)-6-(2,5-dimethyl-2H-1,2,3-triazol-4-yl)-4-fluoroisoindolin-1-one], the mrna remaining at 1 µM was found to be 97% and the mrna remaining at 10 µM came to 75%.

On to `CN(c1ncc(N2Cc3ncc(-c4cn(C)nc4F)cc3C2=O)nn1)[C@H]1C[C@]2(C)CC[C@](C)(C1)N2` [Compound 217, 6-(3-(((1R,3s,5S)-1,5-dimethyl-8-azabicyclo[3.2.1]octan-3-yl)(methyl)amino)-1,2,4-triazin-6-yl)-3-(3-fluoro-1-methyl-1H-pyrazol-4-yl)-6,7-dihydro-5H-pyrrolo[3,4-b]pyridin-5-one], for which the mrna remaining at 1 µM is 92% and the mrna remaining at 10 µM came out at 78%.

Turning to `CN(c1ccc(N2Cc3c(Cl)cc(-c4nn(C)nc4Cl)cc3C2=O)nn1)[C@H]1C[C@]2(C)CC[C@](C)(C1)N2` [Compound 679, 4-chloro-6-(5-chloro-2-methyl-2H-1,2,3-triazol-4-yl)-2-(6-(((1R,3s,5S)-1,5-dimethyl-8-azabicyclo[3.2.1]octan-3-yl)(methyl)amino)pyridazin-3-yl)isoindolin-1-one], the mrna remaining at 1 µM was determined as 95% and the mrna remaining at 10 µM stood at 34%.

Consider `COc1cc(-c2nn(C)nc2Cl)cc2c1CN(c1ccc(O[C@H]3C[C@]4(C)CC[C@](C)(C3)N4)nn1)C2=O` [Compound 684, 6-(5-chloro-2-methyl-2H-1,2,3-triazol-4-yl)-2-(6-(((1R,3s,5S)-1,5-dimethyl-8-azabicyclo[3.2.1]octan-3-yl)oxy)pyridazin-3-yl)-4-methoxyisoindolin-1-one], for which the mrna remaining at 1 µM worked out at 133% and the mrna remaining at 10 µM turned out to be 24%.

`CC(C)(O)Cn1ncc(-c2cc(F)c3c(c2)C(=O)N(c2ccc(OC4CC(C)(C)NC(C)(C)C4)nn2)C3)n1` [Compound 635, 4-fluoro-6-(2-(2-hydroxy-2-methylpropyl)-2H-1,2,3-triazol-4-yl)-2-(6-((2,2,6,6-tetramethylpiperidin-4-yl)oxy)pyridazin-3-yl)isoindolin-1-one]: the mrna remaining at 1 µM amounted to 54% and the mrna remaining at 10 µM stood at 117%.

In the case of `Cn1cc(-c2cnc3c(c2)C(=O)N(c2ccc(OC4CC(C)(C)NC(C)(C)C4)nn2)C3)c(Cl)n1` [Compound 608, 3-(3-chloro-1-methyl-1H-pyrazol-4-yl)-6-(6-((2,2,6,6-tetramethylpiperidin-4-yl)oxy)pyridazin-3-yl)-6,7-dihydro-5H-pyrrolo[3,4-b]pyridin-5-one], the mrna remaining at 1 µM amounted to 86% and the mrna remaining at 10 µM is 20%.

Consider `Cn1ncc(-c2ccc3c(c2)C(=O)N(c2ccc(OC4CC(C)(C)NC(C)(C)C4)nn2)C3)n1` [Compound 362, 6-(2-methyl-2H-1,2,3-triazol-4-yl)-2-(6-((2,2,6,6-tetramethylpiperidin-4-yl)oxy)pyridazin-3-yl)isoindolin-1-one], for which the mrna remaining at 1 µM was 65% and the mrna remaining at 10 µM worked out at 75%.

As for `Cc1nn(C)nc1-c1cnc2c(c1)C(=O)N(c1ccc(OC3CC(C)(C)NC4(CC4)C3)nn1)C2` (centres unmarked) [Compound 228, 3-(2,5-dimethyl-2H-1,2,3-triazol-4-yl)-6-(6-((5,5-dimethyl-4-azaspiro[2.5]octan-7-yl)oxy)pyridazin-3-yl)-6,7-dihydro-5H-pyrrolo[3,4-b]pyridin-5-one], the EC50 came out at 792 nM, the mrna remaining at 1 µM came out at 58% and the mrna remaining at 10 µM came to 37%.

In the case of `Cc1nn(C)nc1-c1cc2c(cn1)CN(c1ccc(O[C@H]3C[C@]4(C)CC[C@](C)(C3)N4)nn1)C2=O` [Compound 96, 6-(2,5-dimethyl-2H-1,2,3-triazol-4-yl)-2-(6-(((1R,3s,5S)-1,5-dimethyl-8-azabicyclo[3.2.1]octan-3-yl)oxy)pyridazin-3-yl)-2,3-dihydro-1H-pyrrolo[3,4-c]pyridin-1-one], the mrna remaining at 1 µM was 79% and the mrna remaining at 10 µM was 119%.
